Patent US4217355A, “Amide therapeutic agents” (Pfizer Inc., priority 1978, dated 1980)

Tests used:
[1] = tested on: carrageenin-induced edema in the hind paw; assay: carrageenin-induced rat food edema test (inhibition of edema formation in the hind paw); assay type: in vivo, male albino rats; conditions: rat, oral
Description: A. Winter et al., Proc. Soc. Exp. Biol. Med., Vol. 111, p.
A. Winter et al., as earlier reported in the Proceedings of the Society of Experimental Biology and Medicine, Vol. 111, p. 544 (1962). In this test, anti-inflammatory activity is determined as the percent inhibition of edema formation in the hind paw of male albino rats (weighing 150-190 g.) in response to a sub-plantar injection of carrageenin. The carrageenin is injected as a 1% aqueous suspension (0.05 ml.) one hour after oral administration of the drug, which is normally given in the form of an aqueous solution. Edema formation is then assessed three hours after the carrageenin injection by measuring the volume of the injected paw initially as well as at the three-hour mark. The increase in volume three hours after carrageenin injection constitutes the individual response.
The following N-(2-thiazolyl)amides were tested for anti-inflammatory activity in rats, using the standard carrageen-ininduced rat food edema test, according to the procedure essentially described by C. A. Winter et al., as first reported in the Proceedings of the Society for Experimental Biology and Medicine, Vol. 111, p. 544 (1962). […]

[2] = tested on: murine thymus cells; assay: lymphocyte stimulation assay (LSA), in vitro lymphocyte proliferation of murine thymus cells cultured in the presence of Concanavalin A; assay type: cell-based, male C57B1/6 mice; conditions: Con A present, 48 hours at 37° C.; for LSA Activity: in vitro, score at drug level with maximum activity
Excerpt: On the other hand, the activity of the compounds of the present invention, as immunoregulator agents, is based on a study of their ability to stimulate, in vitro, the lymphocyte proliferation of murine thymus cells cultured in the presence of Concanavalin A (Con A) by employing the general evaluation procedure of V. J. Merluzzi et al., as described in the Journal of Clinical and Experimental Immunology, Vol. 22, p. 486 (1975).
486 (1975). The cells were derived from male C57B1/6 mice of from 6-8 weeks age, purchased from the Jackson Laboratories of Bar Harbor, Maine and the Con A was obtained from Sigma Chemicals of St. Louis, Missouri. Each cell culture (consisting of 0.10 ml. thymus cells stock solution, 0.05 ml. of Con A stock solution and 0.05 ml. of drug solution) was performed in quadruplicate and cellular proliferation was measured, after 48 hours of incubation at 37° C., by pulsing each culture with ^3 H-thymidine (0.01 ml. of specific activity 1.9 C/mM, obtained from Schwarz-Mann, Inc. of Orangeburg, N.Y.) and then determining the incorporation of ^3 H-thymidine into cellular desoxyribonucleic acid (DNA) by an assessment of radioactivity using a liquid scintillation counter.

[3] = 33 mg./kg., three hours after carrageenin injection

SMILES | LSA Activity [2] | further results
Cl.O=C(CNCc1ccccc1)Nc1nccs1 [N-(2-thiazolyl)-α-benzylaminoacetamide hydrochloride] | – | % Inhibition of edema formation (swelling) ([1]; 1.0 mg./kg.): 35%; % Inhibition of edema formation ([1]; 3.3 mg./kg.): 47%; % Inhibition of edema formation ([1]; 10 mg./kg.): 54%
Cc1csc(NC(=O)C(N)Cc2ccccc2)n1 (stereo not drawn) [X=CH3, R1=C6 H5 CH2, R2=hydrogen, N-(4-methyl-2-thiazolyl)-α-amino-β-phenylpropionamide] | +++ (those having an activity greater than levamisole (27,000±1,000 cpm) were scored as +++) | –
Cc1csc(NC(=O)C(C)N)n1 (stereo not drawn) [X=CH3, R1=CH3, R2=hydrogen, N-(4-methyl-2-thiazolyl)-α-aminopropionamide] | +++ (those having an activity greater than levamisole (27,000±1,000 cpm) were scored as +++) | –
Cc1csc(NC(=O)CNCc2ccccc2)n1 [X=CH3, R1=H, R2=benzyl, N-(4-methyl-2-thiazolyl)-α-benzylaminoacetamide] | +++ (those having an activity greater than levamisole (27,000±1,000 cpm) were scored as +++) | –
CNCC(=O)Nc1nc(C)cs1 [X=CH3, R1=H, R2=methyl, N-(4-methyl-2-thiazolyl)-α-methylaminoacetamide] | +++ (those having an activity greater than levamisole (27,000±1,000 cpm) were scored as +++) | % Inhibition of edema formation [1, 3]: 53%
Cc1csc(NC(=O)CNCCc2ccccc2)n1 [X=CH3, R1=H, R2=β-phenylethyl, N-(4-methyl-2-thiazolyl)-α-(β-phenylethylamino)acetamide] | +++ (those having an activity greater than levamisole (27,000±1,000 cpm) were scored as +++) | –
Cc1csc(NC(=O)C(N)C(C)C)n1 (stereo not drawn) [X=CH3, R1=iso-C3 H7, R2=hydrogen, N-(4-methyl-2-thiazolyl)-α-aminoisovaleramide] | +++ (those having an activity greater than levamisole (27,000±1,000 cpm) were scored as +++) | –
Cc1csc(NC(=O)C2CCCCN2)n1 (stereo not shown) [X=CH3, R=2-piperidyl, N-(4-methyl-2-thiazolyl)piperidine-2-carboxamide] | +++ (those having an activity greater than levamisole (27,000±1,000 cpm) were scored as +++) | –
CC(N)C(=O)Nc1nccs1 (stereo not drawn) [X=H, R1=CH3, R2=hydrogen, N-(2-thiazolyl)-α-aminopropionamide] | +++ (those having an activity greater than levamisole (27,000±1,000 cpm) were scored as +++) | –
CNC(C)C(=O)Nc1nccs1 (stereo not drawn) [X=H, R1=CH3, R2=methyl, N-(2-thiazolyl)-α-methylaminopropionamide] | +++ (those having an activity greater than levamisole (27,000±1,000 cpm) were scored as +++) | –
O=C(CNCc1ccco1)Nc1nccs1 [X=H, R1=H, R2=2-furfuryl, N-(2-thiazolyl)-α-(2-furfurylamino)acetamide] | ++ (those equal to levamisole (22,000±900 cpm) were scored as ++) | –
O=C(CNCC1CCCO1)Nc1nccs1 (stereo not drawn) [X=H, R1=H, R2=2-tetrahydrofurfuryl, N-(2-thiazolyl)-α-(2-tetrahydrofurfurylamino)acetamide] | ++ (those equal to levamisole (22,000±900 cpm) were scored as ++) | –
O=C(CNCc1cccs1)Nc1nccs1 [X=H, R1=H, R2=2-thenyl, N-(2-thiazolyl)-α-(2-thenylamino)acetamide] | +++ (those having an activity greater than levamisole (27,000±1,000 cpm) were scored as +++) | –
O=C(CNCc1ccc2c(c1)OCO2)Nc1nccs1 [X=H, R1=H, R2=3,4-methylenedioxybenzyl, N-(2-thiazolyl)-α-(3,4-methylenedioxybenzylamino)acetamide] | ++ (those equal to levamisole (22,000±900 cpm) were scored as ++) | –
C=CCNCC(=O)Nc1nccs1 [X=H, R1=H, R2=allyl, N-(2-thiazolyl)-α-allylaminoacetamide] | ++ (those equal to levamisole (22,000±900 cpm) were scored as ++) | –
O=C(CNCC1CCCCC1)Nc1nccs1 [X=H, R1=H, R2=cyclohexylmethyl, N-(2-thiazolyl)-α-cyclohexylmethylaminoacetamide] | ++ (those equal to levamisole (22,000±900 cpm) were scored as ++) | –

SMILES | LSA Activity [2] | further results
O=C(CNC1CCCCCCC1)Nc1nccs1 [X=H, R1=H, R2=cyclooctyl, N-(2-thiazolyl)-α-cyclooctylaminoacetamide] | ++ (those equal to levamisole (22,000±900 cpm) were scored as ++) | –
CCNCC(=O)Nc1nccs1 [X=H, R1=H, R2=ethyl, N-(2-thiazolyl)-α-ethylaminoacetamide] | +++ (those having an activity greater than levamisole (27,000±1,000 cpm) were scored as +++) | –
NCC(=O)Nc1nccs1 [X=H, R1=H, R2=hydrogen, N-(2-thiazolyl)-α-aminoacetamide] | ++ (those equal to levamisole (22,000±900 cpm) were scored as ++) | –
CNCC(=O)Nc1nccs1 [X=H, R1=H, R2=methyl, N-(2-thiazolyl)-α-methylaminoacetamide] | +++ (those having an activity greater than levamisole (27,000±1,000 cpm) were scored as +++) | % Inhibition of edema formation [1, 3]: 54%
CCCCNCC(=O)Nc1nccs1 [X=H, R1=H, R2=n-butyl, N-(2-thiazolyl)-α-(n-butylamino)acetamide] | ++ (those equal to levamisole (22,000±900 cpm) were scored as ++) | –
CCCNCC(=O)Nc1nccs1 [X=H, R1=H, R2=n-propyl, N-(2-thiazolyl)-α-(n-propylamino)acetamide] | ++ (those equal to levamisole (22,000±900 cpm) were scored as ++) | –
O=C(CNCc1ccc(Cl)cc1)Nc1nccs1 [X=H, R1=H, R2=p-chlorobenzyl, N-(2-thiazolyl)-α-(p-chlorobenzylamino)acetamide] | ++ (those equal to levamisole (22,000±900 cpm) were scored as ++) | –
O=C(CNCc1ccc(F)cc1)Nc1nccs1 [X=H, R1=H, R2=p-fluorobenzyl, N-(2-thiazolyl)-α-(p-fluorobenzylamino)acetamide] | +++ (those having an activity greater than levamisole (27,000±1,000 cpm) were scored as +++) | % Inhibition of edema formation [1, 3]: 48%
COc1ccc(CNCC(=O)Nc2nccs2)cc1 [X=H, R1=H, R2=p-methoxybenzyl, N-(2-thiazolyl)-α-(p-methoxybenzylamino)acetamide] | +++ (those having an activity greater than levamisole (27,000±1,000 cpm) were scored as +++) | –
Cc1ccc(CNCC(=O)Nc2nccs2)cc1 [X=H, R1=H, R2=p-methylbenzyl, N-(2-thiazolyl)-α-(p-methylbenzylamino)acetamide] | + (those superior to Con A activity but less than levamisole (10,000±700 cpm) were scored as +) | –
O=C(CNCc1ccc(C(F)(F)F)cc1)Nc1nccs1 [X=H, R1=H, R2=p-trifluoromethylbenzyl] | ++ (those equal to levamisole (22,000±900 cpm) were scored as ++) | –
O=C(CNCCc1ccccc1)Nc1nccs1 [X=H, R1=H, R2=β-phenylethyl, N-(2-thiazolyl)-α-(β-phenylethylamino)acetamide] | ++ (those equal to levamisole (22,000±900 cpm) were scored as ++) | % Inhibition of edema formation [1, 3]: 53%
CC(C)C(N)C(=O)Nc1nccs1 (stereo not drawn) [X=H, R1=iso-C3 H7, R2=hydrogen, N-(2-thiazolyl)-α-aminoisovaleramide] | ++ (those equal to levamisole (22,000±900 cpm) were scored as ++) | –
O=C(Nc1nccs1)C1CCCCN1 (stereo not shown) [X=H, R=2-piperidyl, N-(2-thiazolyl)piperidine-2-carboxamide] | +++ (those having an activity greater than levamisole (27,000±1,000 cpm) were scored as +++) | % Inhibition of edema formation [1, 3]: 55%
O=C(Nc1nccs1)C1CCCN1 (stereo not shown) [X=H, R=2-pyrrolidinyl, N-(2-thiazolyl)pyrrolidine-2-carboxamide] | +++ (those having an activity greater than levamisole (27,000±1,000 cpm) were scored as +++) | % Inhibition of edema formation [1, 3]: 48%
c1ccc([C@H]2CN3CCSC3=N2)cc1 [levamisole, reference compound] | – | 3H-thymidine incorporated (average counts per minute) ([2]; standard compound): 22,000±900 cpm
